# Laboratory results reported in patent US20240287079A1, “6-AMINOPYRAZOLOPYRIMIDINE COMPOUND AND PHARMACEUTICAL USE THEREOF” (Japan Tobacco Inc., priority 2021, published 2024).
# pIC50: −log10 of the molar value.
# Biological target: NLRP3 inflammasome (Homo sapiens (Human), UniProt Q96P20)
# Assay: Evaluation of NLRP3 inflammasome inhibitory activity (inhibition of IL-1β production in LPS/Nigericin-stimulated THP1-Null cells)
# Assay type: cell-based
# Conditions: IL-1β production in THP1-Null cells, PMA, LPS 1 μg/mL, Nigericin 7.5 μmol/L, AlphaLISA
# Outline: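 THP1-Null cells primed with 1 μg/mL LPS, then treated with test compound; supernatant IL-1β quantified by AlphaLISA. Inhibition calculated with blank wells as 100% and control wells as 0%.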
# Sequence of NLRP3 inflammasome (Q96P20 whole entry): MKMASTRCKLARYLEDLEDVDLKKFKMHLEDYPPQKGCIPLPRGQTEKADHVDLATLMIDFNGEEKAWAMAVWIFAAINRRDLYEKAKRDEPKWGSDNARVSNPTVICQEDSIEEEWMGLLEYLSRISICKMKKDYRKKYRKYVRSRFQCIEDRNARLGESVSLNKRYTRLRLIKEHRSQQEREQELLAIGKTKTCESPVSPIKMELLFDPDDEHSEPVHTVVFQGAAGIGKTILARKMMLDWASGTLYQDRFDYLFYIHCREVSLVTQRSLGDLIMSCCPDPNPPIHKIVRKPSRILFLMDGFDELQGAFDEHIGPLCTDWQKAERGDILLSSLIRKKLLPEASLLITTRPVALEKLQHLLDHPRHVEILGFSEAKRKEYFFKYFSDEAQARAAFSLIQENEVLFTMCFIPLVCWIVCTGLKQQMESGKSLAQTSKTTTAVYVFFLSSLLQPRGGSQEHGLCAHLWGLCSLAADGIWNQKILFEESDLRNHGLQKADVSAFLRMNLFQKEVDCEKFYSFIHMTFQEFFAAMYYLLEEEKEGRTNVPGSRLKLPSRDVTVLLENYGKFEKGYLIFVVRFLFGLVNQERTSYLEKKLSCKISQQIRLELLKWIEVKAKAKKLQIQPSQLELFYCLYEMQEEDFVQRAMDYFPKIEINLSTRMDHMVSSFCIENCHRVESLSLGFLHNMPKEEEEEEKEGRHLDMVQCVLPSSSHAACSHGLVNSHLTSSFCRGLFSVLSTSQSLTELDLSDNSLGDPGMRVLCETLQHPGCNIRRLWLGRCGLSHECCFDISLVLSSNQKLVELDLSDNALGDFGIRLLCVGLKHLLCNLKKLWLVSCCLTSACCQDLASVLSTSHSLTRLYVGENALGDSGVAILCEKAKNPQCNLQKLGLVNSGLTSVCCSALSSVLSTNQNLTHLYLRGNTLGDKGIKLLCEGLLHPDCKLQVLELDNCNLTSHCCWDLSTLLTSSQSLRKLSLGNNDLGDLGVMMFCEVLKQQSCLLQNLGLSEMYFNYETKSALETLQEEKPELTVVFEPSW
row,SMILES,pIC50
1,Cc1cc(C2CC2)cc(C)c1-n1cc2c(=O)n(C)c(N3CC4CC(C3)O4)nc2n1 [Example 312],6.60
2,CO[C@H]1CCN(c2nc3nn(-c4c(C)cc(Br)cc4C)cc3c(=O)[nH]2)C1 [Example 318],7.49
3,Cc1nn(C2CCC2)c(C)c1-n1cc2c(=O)[nH]c(N3CCCC3)nc2n1 [Example 344],6.19
4,CC(C)Cc1ccccc1-n1cc2c(=O)[nH]c(N3CCOCC3)nc2n1 [Example 322],6.29
5,[2H]C([2H])([2H])Nc1nc2nn(-c3c(C)cc(C4CC4)cc3C)cc2c(=O)[nH]1 [Example 231],8.11
6,Cc1cc(Cl)cc(CO)c1-n1cc2c(=O)[nH]c(N3CCOCC3)nc2n1 [Example 158],7.04
7,O=c1[nH]c(N2CCCNCC2)nc2nn(-c3ccc(C(F)(F)F)cc3Cl)cc12 [Example 133],7.20
8,Cc1cc(C2CC2)ccc1-n1cc2c(=O)[nH]c(N3CCCC3)nc2n1 [Example 82],8.39
9,Cc1ccc(-n2cc3c(=O)[nH]c(N4CCCC4)nc3n2)c(Cl)c1 [Example 87],8.29
10,Cc1cc(Br)cnc1-n1cc2c(=O)[nH]c(N3CCCC3)nc2n1 [Example 77],7.31
11,Cc1cc(C(C)C(F)(F)F)cc(C)c1-n1cc2c(=O)[nH]c(N3CCOCC3)nc2n1 (racemic) [Example 294],6.57
12,Cc1cc(C)c(-n2cc3c(=O)[nH]c(N4CCC(C)C4)nc3n2)c(C)c1 (racemic) [Example 109],7.19
13,Cc1cc(C2CC2)ncc1-n1cc2c(=O)[nH]c(N3CCOCC3)nc2n1 [Example 202],6.19
14,Cc1ccc(C(F)(F)F)cc1-n1cc2c(=O)[nH]c(N3CCCC3)nc2n1 [Example 6],5.40
15,COC1CCN(c2nc3nn(-c4ccc(Br)cc4C)cc3c(=O)[nH]2)C1 (racemic) [Example 70],7.41
16,"Cc1ccccc1-n1cc2c(=O)[nH]c(N3CCCC3)nc2n1 [Example 3, 6-(pyrrolidin-1-yl)-2-(o-tolyl)-2,5-dihydro-4H-pyrazolo[3,4-d]pyrimidin-4-one]",6.28
17,O=c1[nH]c(N2CCCC2)nc2nn(-c3c(F)cccc3F)cc12 [Example 10],5.62
18,"Cc1nn(C(C)C)c(C)c1-n1cc2c(=O)[nH]c(N3CCCC3)nc2n1 [Example 343, 2-(1-isopropyl-3,5-dimethyl-1H-pyrazol-4-yl)-6-(pyrrolidin-1-yl)-2,5-dihydro-4H-pyrazolo[3,4-d]pyrimidin-4-one]",6.12
19,O=c1[nH]c(N2CCOCC2)nc2nn(-c3ccc(C4CC4)cc3OC(F)(F)F)cc12 [Example 208],7.85
20,CO[C@@H]1CCN(c2nc3nn(-c4c(C)cc(Br)cc4C)cc3c(=O)[nH]2)C1 [Example 316],8.19
21,Cc1ccccc1-n1cc2c(=O)[nH]c(N(C)C)nc2n1 [Example 20],5.19
22,O=c1[nH]c(N2CCCC2)nc2nn(-c3ccc(F)cc3Cl)cc12 [Example 32],6.62
23,CNc1nc2nn(-c3c(C)cc(Br)cc3C)cc2c(=O)[nH]1 [Example 185],8.25
24,COc1nc(N2CCCC2)nc2nn(-c3ccccc3C)cc12 [Example 13],5.11
25,Cc1cc(C(C)C)ccc1-n1cc2c(=O)[nH]c(N3CCCC3)nc2n1 [Example 83],8.08
26,Cc1cc(Br)ccc1-n1cc2c(=O)[nH]c(N3CCC(C#N)C3)nc2n1 (racemic) [Example 90],8.31
27,Cc1cc(C2CC2)cc(C)c1-n1cc2c(=O)[nH]c(N3CCOCC3)nc2n1 [Example 124],8.52

row,SMILES,pIC50
1,Cn1c(N2CC3CC(C2)O3)nc2nn(-c3ccc(Br)cc3C(F)(F)F)cc2c1=O [Example 311],6.49
2,Cc1cc(-n2cc3c(=O)[nH]c(N4CCOCC4)nc3n2)c(C)cc1Cl [Example 265],6.46
3,Cc1ccc(-n2cc3c(=O)[nH]c(N4CCOCC4)nc3n2)c(C)c1 [Example 58],6.92
4,Cc1ccccc1-n1cc2c(=O)[nH]c(N3CCC3)nc2n1 [Example 16],5.89
5,Cc1cc(Cl)cc(C=O)c1-n1cc2c(=O)[nH]c(N3CCOCC3)nc2n1 [Example 160],7.44
6,Cc1cc(Br)ccc1-n1cc2c(=O)[nH]c(NCc3ccccc3)nc2n1 [Example 74],7.60
7,Cc1cc(Br)ccc1-n1cc2c(=O)[nH]c(N3CCS(=O)(=O)CC3)nc2n1 [Example 79],8.23
8,Cc1cc(Cl)ccc1-n1cc2c(=O)[nH]c(N3CCCC3)nc2n1 [Example 95],8.28
9,O=c1[nH]c(N2CCOCC2)nc2nn(-c3c(F)cc(C(F)(F)F)cc3Cl)cc12 [Example 189],7.70
10,Cc1cc(Br)ccc1-n1cc2c(=O)[nH]c(N3CCNC(=O)C3)nc2n1 [Example 78],7.55
11,Cc1cc(C)c(-n2cc3c(=O)[nH]c(N4CCCC4)nc3n2)c(C)c1 [Example 63],7.77
12,CC(=O)N1CCCN(c2nc3nn(-c4ccc(C(F)(F)F)cc4Cl)cc3c(=O)[nH]2)CC1 [Example 134],7.04
13,Cc1cc(C)c(-n2cc3c(=O)[nH]c(N4CC(F)(F)C4)nc3n2)c(C)c1 [Example 92],7.96
14,Cc1cc(CC(F)F)cc(C)c1-n1cc2c(=O)[nH]c(N3CCOCCO3)nc2n1 [Example 358],6.10
15,Cc1cc(Br)cc(C)c1-n1cc2c(=O)[nH]c(N3CC4COC(C4)C3)nc2n1 (racemic) [Example 279],7.82
16,Cc1cc(C(F)(F)F)cc(C)c1-n1cc2c(=O)[nH]c(N3C[C@H]4C[C@@H]3CO4)nc2n1 [Example 249],8.48
17,O=c1[nH]c(N2CCCOCC2)nc2nn(-c3ccc(C(F)(F)F)cc3Cl)cc12 [Example 129],7.46
18,O=c1[nH]c(N2CCOCC2)nc2nn(-c3ccc(C4CC4)cc3CC3CC3)cc12 [Example 321],7.54
19,Cc1ccc(-n2cc3c(=O)[nH]c(N4CCCC4)nc3n2)cc1 [Example 40],6.11
20,Cc1c2c(=O)[nH]c(N3CCCC3)nc2nn1-c1ccc(C(F)(F)F)cc1Cl [Example 170],7.06
21,Cc1cc(Br)cc(C)c1-n1cc2c(=O)[nH]c(NCC3CC3)nc2n1 [Example 228],8.11
22,Cc1cc(Br)cc(C)c1-n1cc2c(=O)[nH]c(NCCOCCO)nc2n1 [Example 360],8.21
23,CCc1ccc(-n2cc3c(=O)[nH]c(N4CCCC4)nc3n2)c(C)c1 [Example 120],7.72
24,[2H]C([2H])([2H])Nc1nc2nn(-c3c(C)cc(Br)cc3C)cc2c(=O)[nH]1 [Example 229],8.03
25,Cc1cc(Br)ccc1-n1cc2c(=O)[nH]c(N3CC4CC3CO4)nc2n1 (racemic) [Example 159],7.96
26,O=c1[nH]c(N2CCOCC2)nc2nn(-c3ccc(Br)cc3C(F)F)cc12 [Example 243],7.17

# Same assay, conditions: IL-1β production in THP1-Null cells; test compound 0.0024 μM
row,SMILES,inhibition at 0.0024 µM [%]
1,Cc1cc(Br)cc(C)c1-n1cc2c(=O)[nH]c(NCCO)nc2n1 [Example 359],69
